According to patent US20250134889A1, “TARGETING IRE1 KINASE AND FMRP FOR PROPHYLAXIS, MANAGEMENT AND TREATMENT OF ATHEROSCLEROSIS” (CEDARS-SINAI MEDICAL CENTER, priority 2022, published 2025):

Experiments:
[1] = system: mouse and human macrophages; conditions: cited from earlier work
[2] = system: atherosclerotic plaque; conditions: mice; cited from earlier work
[3] = system: HEK293T cells; assay: ER stress-induced phosphorylation in control- or IRE1-siRNA transfected HEK293T cells (western blot); assay type: cell-based, human; conditions: PA 500 μM or TG 600 nM, 4 hours, control cells
Description: FIGS. 1A-1K depict FMRP is a new inositol-requiring enzyme-1 (IRE1) kinase substrate. A representative blot is shown from at least n=3 independent experiments. Data are mean±SEM. Unpaired 1-test with Welch's correction or paired 1-test. * P≤0.05, ** P≤0.01, *** P≤0.001. • 1A. STING analysis of published IRE1 interactome proteins in relation to FMRP (Acosta-Alvear et al., 2018). • 1B. HEK293T cells were co-transfected with IRE1 and FMRP plasmids and stimulated with TG (600 nM) or TM (1 mg/ml) for 2 hours. Protein lysates were immunoprecipitated (IP) with anti-IRE1 or IgG (control) antibodies and analyzed by Western blotting using specific antibodies for FMRP and IRE1 (n=3). • 1C. RAW 264.7 mouse macrophages were treated with either oxLDL (50 μg/ml) or TG (300 nM) for 6 hours. Protein lysates were treated with λ Phosphatase (PPase) for 30 minutes and analyzed by western blotting using specific antibodies for pFMRP, FMRP, pIRE1, IRE1 and β-Actin. pFMRP/FMRP fold induction is depicted above the blots (n=6). • 1D. […] Protein lysates were analyzed by western blotting using specific antibodies for pFMRP, FMRP, pIRE1, IRE1 and β-Actin. pFMRP/FMRP-fold induction is depicted above the blots (n=5). • 1E. […] Protein lysates were analyzed by western blotting using specific antibodies for pFMRP, FMRP, pIRE1, IRE1 and β-Actin. pFMRP/FMRP fold induction is depicted above the blots (n=4). • 1F. […]

[4] = system: RAW 264.7 mouse macrophages; assay: ER stressor treatment of RAW 264.7 macrophages (western blot, qRT-PCR); assay type: cell-based; conditions: oxLDL 50 μg/ml or TG 300 nM, 6 hours
Description: FIGS. 1A-1K depict FMRP is a new inositol-requiring enzyme-1 (IRE1) kinase substrate. A representative blot is shown from at least n=3 independent experiments. Data are mean±SEM. Unpaired 1-test with Welch's correction or paired 1-test. * P≤0.05, ** P≤0.01, *** P≤0.001. • 1A. STING analysis of published IRE1 interactome proteins in relation to FMRP (Acosta-Alvear et al., 2018). • 1B. HEK293T cells were co-transfected with IRE1 and FMRP plasmids and stimulated with TG (600 nM) or TM (1 mg/ml) for 2 hours. Protein lysates were immunoprecipitated (IP) with anti-IRE1 or IgG (control) antibodies and analyzed by Western blotting using specific antibodies for FMRP and IRE1 (n=3). • 1C. RAW 264.7 mouse macrophages were treated with either oxLDL (50 μg/ml) or TG (300 nM) for 6 hours. Protein lysates were treated with λ Phosphatase (PPase) for 30 minutes and analyzed by western blotting using specific antibodies for pFMRP, FMRP, pIRE1, IRE1 and β-Actin. pFMRP/FMRP fold induction is depicted above the blots (n=6). • 1D. Apoe^−/− mice were fed with chow diet (CD) or western diet (WD) for 16 weeks followed by peritoneal macrophage (PM) isolation. Protein lysates were analyzed by western blotting using specific antibodies for pFMRP, FMRP, pIRE1, IRE1 and β-Actin. pFMRP/FMRP-fold induction is depicted above the blots (n=5). • 1E. Control- or IRE1-siRNA transfected HEK293T cells were stimulated by either PA (500 μM) or TG (600 nM) for 4 hours. Protein lysates were analyzed by western blotting using specific antibodies for pFMRP, FMRP, pIRE1, IRE1 and β-Actin. pFMRP/FMRP fold induction is depicted above the blots (n=4). • 1F. Protein lysates of thioglycolate-elicited PM from IRE1α^−/− and IRE1α^−/− mice (after 16 weeks on WD) were analyzed by western blotting using specific antibodies for pFMRP, FMRP, pIRE1, IRE1 and β-Actin. pFMRP/FMRP fold induction is depicted above the blots (n=4). • 1G. […] Protein lysates were analyzed by western blotting using specific antibodies for pFMRP, FMRP, pIRE1, IRE1 and β-Actin. pFMRP/FMRP fold induction is depicted above the blots (n=4). • 1H. […] Protein lysates of thioglycolate-elicited PM were analyzed by western blotting using antibodies for pFMRP, FMRP, pIRE1, IRE1 and β-Actin. pFMRP/FMRP fold induction is depicted above the blots (n=4). • 1I. […] The IP protein were analyzed by western blotting using specific antibodies for thiophosphate esters (ThioP), IRE1 and FMRP (n=3). • 1J. Purified FMRP and IRE1 kinase (activated) proteins were subjected to kinase assay and analyzed by western blotting using specific antibodies for ThioP, IRE1 and FMRP (n=3) and with LC-MS/MS. […] Protein lysates were analyzed by western blotting using specific antibodies for FMRP, pFMRP, pIRE1 and β-Actin. pFMRP/FMRP fold induction is depicted above the blots (n=3). […]

Row | Structure (SMILES) | lipid-induced inflammasome activation [1] | secretion of mature interleukin-1β (m-IL-1β) and m-IL-18 [1] | atherosclerotic plaque size [2] | hyperlipidemia-induced m-IL-1β and m-IL-18 production [2] | phosphorylation of FMRP [3] | phosphorylation of IRE1 [3] | FMRP phosphorylation (S500) [4] | IRE1 autophosphorylation (S724) [4] | levels of FMRP protein [4] | levels of Fmr1 mRNA [4]
1 | Cc1cc(=O)oc2c(C=O)c(O)ccc12 [4μ8C] | prevented | prevented | reducing | reducing |  |  |  |  |  | 
2 | O=S(=O)(N=Cc1c(O)ccc2ccccc12)c1cccs1 [STF-083010] | prevented | prevented | reducing | reducing |  |  |  |  |  | 
3 | C/C=C(/C)C(=O)O[C@H]1C(C)=C2[C@H]([C@@H]1OC(=O)CCCCCCC)[C@@](C)(OC(C)=O)C[C@H](OC(=O)CCC)[C@@]1(O)[C@H]2OC(=O)[C@@]1(C)O [TG, thapsigargin] |  |  |  |  | induced | induced | significantly induced | significantly induced | did not affect | did not affect
